From ChEMBL document CHEMBL4725268, “Anticonvulsant and analgesic in neuropathic pain activity in a group of new aminoalkanol derivatives” (Bioorg Med Chem Lett, 2020)
Active and inactive are the calls of the source.

Key:
[1] = Toxicity in mouse assessed as lethality at 50 mg/kg, ip; assay type: organism-based; conditions: in vivo
Mus musculus [2] = assay: Antiallodynic activity in mouse model of OXA-induced peripheral neuropathy assessed as mean paw withdrawal threshold at 15 mg/kg, ip administered after 3 hrs of OXA stimulation and measured after 1 hr by Von-frey method (reference value: 3.144 +/- 0.169 g); assay type: functional
Mus musculus [3] = assay: Antiallodynic activity in mouse model of OXA-induced peripheral neuropathy assessed as mean paw withdrawal threshold at 15 mg/kg, ip administered after 7 days of OXA stimulation and measured after 1 hr by Von-frey method (reference value: 3.192 +/- 0.181 g); assay type: functional
Astrocyte [4] = assay: Cytotoxicity against mouse Astrocyte assessed as reduction in cell viability at 100 uM incubated for 48 hrs by trypan blue assay; assay type: cell-based
[5] = Protection index, ratio of TD50 for toxicity in ip dosed mouse to ED50 for anticonvulsant activity in ip dosed mouse; assay type: organism-based; conditions: in vivo, read-out: PI
[6] = Genotoxicity in Salmonella typhimurium TA98 assessed as number of revertant at 200 ug by AMES test (reference value: 8 to 8.3); assay type: toxicity, Salmonella enterica subsp. enterica serovar Typhimurium; conditions: in vivo; dose 200 µg
[7] = Genotoxicity in Salmonella typhimurium TA100 assessed as mutagenic index at 75 ug by AMES test; assay type: toxicity, Salmonella enterica subsp. enterica serovar Typhimurium; conditions: in vivo; dose 75 µg
[8] = Genotoxicity in Salmonella typhimurium TA98 assessed as mutagenic index at 500 ug by AMES test; assay type: toxicity, Salmonella enterica subsp. enterica serovar Typhimurium; conditions: in vivo; dose 500 µg
Astrocyte [9] = assay: Cytotoxicity against mouse Astrocyte assessed as reduction in cell viability at > 25 uM measured upto 48 hrs by crystal violet staining colorimetric assay; assay type: cell-based
[10] = Toxicity in ip dosed mouse assessed as motor impairment by rotarod test; assay type: organism-based; conditions: in vivo
[11] = Genotoxicity in Salmonella typhimurium TA100 assessed as mutagenic index at 1 ug by AMES test; assay type: toxicity, Salmonella enterica subsp. enterica serovar Typhimurium; conditions: in vivo; dose 1 µg
[12] = Genotoxicity in Salmonella typhimurium TA98 assessed as number of revertant at 500 ug by AMES test (reference value: 8 to 8.3); assay type: toxicity, Salmonella enterica subsp. enterica serovar Typhimurium; conditions: in vivo; dose 500 µg
[13] = Genotoxicity in Salmonella typhimurium TA98 assessed as number of revertant at 750 ug by AMES test (reference value: 8 to 8.3); assay type: toxicity, Salmonella enterica subsp. enterica serovar Typhimurium; conditions: in vivo; dose 750 µg
[14] = Genotoxicity in Salmonella typhimurium TA98 assessed as number of revertant at 75 ug by AMES test (reference value: 8 to 8.3); assay type: toxicity, Salmonella enterica subsp. enterica serovar Typhimurium; conditions: in vivo; dose 75 µg
[15] = Genotoxicity in Salmonella typhimurium TA100 assessed as number of revertant at 200 ug by AMES test (reference value: 64.3 to 130.7); assay type: toxicity, Salmonella enterica subsp. enterica serovar Typhimurium; conditions: in vivo; dose 200 µg
[16] = Genotoxicity in Salmonella typhimurium TA100 assessed as number of revertant at 0.1 ug by AMES test (reference value: 64.3 to 130.7); assay type: toxicity, Salmonella enterica subsp. enterica serovar Typhimurium; conditions: in vivo; dose 0.1 µg
in vitro [17] = conditions: mouse, microsomes
Description: Metabolic stability in mouse microsome assessed as intrinsic clearance

[18] = Genotoxicity in Salmonella typhimurium TA98 assessed as mutagenic index at 75 ug by AMES test; assay type: toxicity, Salmonella enterica subsp. enterica serovar Typhimurium; conditions: in vivo; dose 75 µg
[19] = Genotoxicity in Salmonella typhimurium TA98 assessed as number of revertant at 10 ug by AMES test (reference value: 8 to 8.3); assay type: toxicity, Salmonella enterica subsp. enterica serovar Typhimurium; conditions: in vivo; dose 10 µg
[20] = Genotoxicity in Salmonella typhimurium TA100 assessed as number of revertant at 1 ug by AMES test (reference value: 64.3 to 130.7); assay type: toxicity, Salmonella enterica subsp. enterica serovar Typhimurium; conditions: in vivo; dose 1 µg
Astrocyte [21] = assay: Cytotoxicity against human Astrocyte assessed as reduction in cell viability at 50 uM incubated for 24 hrs by MTT assay; assay type: cell-based
[22] = Genotoxicity in Salmonella typhimurium TA100 assessed as number of revertant at 75 ug by AMES test (reference value: 64.3 to 130.7); assay type: toxicity, Salmonella enterica subsp. enterica serovar Typhimurium; conditions: in vivo; dose 75 µg
Mus musculus [23] = assay: Antiallodynic activity in mouse model of OXA-induced peripheral neuropathy assessed as mean latency time to nocifensive response at 15 mg/kg, ip administered after 7 days of OXA stimulation and measured after 1 hr by cold plate method (reference value: 57.64 +/- 1.267 sec); assay type: functional
Mus musculus [24] = assay: Antiallodynic activity in mouse model of OXA-induced peripheral neuropathy assessed as mean latency time to nocifensive response at 15 mg/kg, ip administered after 3 hrs of OXA stimulation and measured after 1 hr by cold plate method (reference value: 59.76 +/- 0.16 sec); assay type: functional
[25] = Genotoxicity in Salmonella typhimurium TA100 assessed as mutagenic index at 200 ug by AMES test; assay type: toxicity, Salmonella enterica subsp. enterica serovar Typhimurium; conditions: in vivo; dose 200 µg
Astrocyte [26] = assay: Cytotoxicity against mouse Astrocyte assessed as reduction in cell viability at 100 uM incubated for 24 hrs by LDH assay; assay type: cell-based
[27] = Genotoxicity in Salmonella typhimurium TA98 assessed as mutagenic index at 200 ug by AMES test; assay type: toxicity, Salmonella enterica subsp. enterica serovar Typhimurium; conditions: in vivo; dose 200 µg
[28] = Drug metabolism in mouse microsome assessed as formation of monohydroxylated metabolite; assay type: ADME; conditions: microsomes
in vitro [29] = conditions: mouse, microsomes; remark: listed apart in the source
Description: Metabolic stability in mouse microsome assessed as half life

[30] = Genotoxicity in Salmonella typhimurium TA98 assessed as mutagenic index at 750 ug by AMES test; assay type: toxicity, Salmonella enterica subsp. enterica serovar Typhimurium; conditions: in vivo; dose 750 µg
[31] = biological target: T1, 5-hydroxytryptamine receptor 1A (Homo sapiens, UniProt P08908); assay: Binding affinity to 5-HT1A (unknown origin)
T1 sequence (P08908 whole entry): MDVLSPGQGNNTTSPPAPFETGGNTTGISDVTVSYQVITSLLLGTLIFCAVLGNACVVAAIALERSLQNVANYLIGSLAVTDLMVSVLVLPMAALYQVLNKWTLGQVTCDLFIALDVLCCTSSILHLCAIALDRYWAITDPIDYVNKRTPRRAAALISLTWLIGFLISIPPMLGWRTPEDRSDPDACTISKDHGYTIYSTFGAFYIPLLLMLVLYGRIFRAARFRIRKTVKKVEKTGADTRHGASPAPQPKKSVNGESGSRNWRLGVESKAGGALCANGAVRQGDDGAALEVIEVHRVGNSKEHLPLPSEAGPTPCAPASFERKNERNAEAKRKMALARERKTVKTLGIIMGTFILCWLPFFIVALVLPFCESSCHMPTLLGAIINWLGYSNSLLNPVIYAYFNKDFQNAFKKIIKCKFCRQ

[32] = Antioxidant activity assessed as DPPH radical scavenging activity at 125 to 1000 uM by microplate method; assay type: functional; conditions: dose microM 125-1000
[33] = Genotoxicity in Salmonella typhimurium TA100 assessed as mutagenic index at 10 ug by AMES test; assay type: toxicity, Salmonella enterica subsp. enterica serovar Typhimurium; conditions: in vivo; dose 10 µg
[34] = Genotoxicity in Salmonella typhimurium TA98 assessed as mutagenic index at 10 ug by AMES test; assay type: toxicity, Salmonella enterica subsp. enterica serovar Typhimurium; conditions: in vivo; dose 10 µg
Mus musculus [35] = assay: Anticonvulsant activity in ip dosed mouse assessed as protection against current-induced seizure by maximal electroshock seizure test; assay type: functional
[36] = Genotoxicity in Salmonella typhimurium TA100 assessed as number of revertant at 10 ug by AMES test (reference value: 64.3 to 130.7); assay type: toxicity, Salmonella enterica subsp. enterica serovar Typhimurium; conditions: in vivo; dose 10 µg
[37] = Genotoxicity in Salmonella typhimurium TA100 assessed as mutagenic index at 0.1 ug by AMES test; assay type: toxicity, Salmonella enterica subsp. enterica serovar Typhimurium; conditions: in vivo; dose 0.1 µg

## Cc1cc(C)c(C)c(OCCN[C@@H]2CCCC[C@H]2O)c1 (racemic)
[1]
  Activity: Non-Toxic
Mus musculus [2]
  Activity: 2.222 g
Mus musculus [3]
  Activity: 2.122 g
Astrocyte [4]
  Activity: Toxic
[5]
  selectivity ratio: 5
[6]
  Activity: 6.7
[7]
  Activity_index: 1.4
[8]
  Activity_index: 1.1
Astrocyte [9]
  Activity: Toxic
[10]
  TD50: 78.3 mg/kg
[11]
  Activity_index: 1.1
[12]
  Activity: 8.7
[13]
  Activity: 9.3
[14]
  Activity: 6.3
[15]
  Activity: 49
[16]
  Activity: 147
In vitro [17]
  microsomal CLint: 128 µL/min/mg
[18]
  Activity_index: 0.8
[19]
  Activity: 7.3
[20]
  Activity: 138.3
Astrocyte [21]
  Activity: Toxic
[22]
  Activity: 105
Mus musculus [23]
  Time: 9.278 s
Mus musculus [24]
  Time: 22.333 s
[25]
  Activity_index: 0.7
Astrocyte [26]
  Activity: Toxic
[27]
  Activity_index: 0.8
[28]
  Drug metabolism: Metabolite_Detected
In vitro [29]
  half-life: 27.2 min
[30]
  Activity_index: 1.2
[31]
  Ki: 1010 nM
[32]
  Activity: inactive
[33]
  Activity_index: 2.6
[34]
  Activity_index: 0.9
Mus musculus [35]
  ED50: 15.7 mg/kg
[36]
  Activity: 185.5
[37]
  Activity_index: 1.1
